Laboratory results as given in US9856254B2, “Alkoxy substituted imidazoquinolines” (3M INNOVATIVE PROPERTIES COMPANY, priority 2003, dated 2018).
Structures can show the parent of a compound that is named as a salt.

melting point	Compound
226.9 to 228.2 °C	Cc1nc2c(N)nc3cc(OCCNC(=O)OC(C)(C)C)ccc3c2n1CC(C)C [Example 9, tert-Butyl 2-{[4-amino-2-methyl-1-(2-methylpropyl)-1H-imidazo[4,5-c]quinolin-7-yl]oxy}ethylcarbamate]
157 °C	CCOCc1nc2c(N)nc3cc(OCCCN4CCCC4=O)ccc3c2n1CCCCNS(C)(=O)=O [Example 400, N-(4-{4-Amino-2-(ethoxymethyl)-7-[3-(2-oxopyrrolidin-1-yl)propoxy]-1H-imidazo[4,5-c]quinolin-1-yl}butyl)methanesulfonamide]
200 to 202 °C	CCCn1c(COCC)nc2c(N)nc3ccc(OCCNC(=O)N4CCOCC4)cc3c21 (as salt: hydrochloride) [Example 4, N-(2-{[4-Amino-2-(ethoxymethyl)-1-propyl-1H-imidazo[4,5-c]quinolin-8-yl]oxy}ethyl)morpholine-4-carboxamide]
167.4 to 168.8 °C	CCCCc1nc2c(N)nc3ccc(OCC(=O)N(C)Cc4ccccc4)cc3c2n1C [Example 34, 2-[(4-Amino-2-butyl-1-methyl-1H-imidazo[4,5-c]quinolin-8-yl)oxy]-N-benzyl-N-methylacetamide]
163 to 164.5 °C	CCCn1c(COCC)nc2c(N)nc3cc(OC4CCN(C(=O)NC(C)C)CC4)ccc3c21 [Example 417, 4-{[4-Amino-2-(ethoxymethyl)-1-propyl-1H-imidazo[4,5-c]quinolin-7-yl]oxy}-N-isopropylpiperidine-1-carboxamide]
142 to 144 °C	CCOCc1nc2c(N)nc3cc(OCCCN4CCCC4=O)ccc3c2n1CCCCN1CCCS1(=O)=O [Example 402, 1-(3-{[4-Amino-1-[4-(1,1-dioxidoisothiazolidin-2-yl)butyl]-2-(ethoxymethyl)-1H-imidazo[4,5-c]quinolin-7-yl]oxy}propyl)pyrrolidin-2-one]
176 to 180 °C	CCOCc1nc2c(N)nc3cc(OCCCCCCNS(C)(=O)=O)ccc3c2n1CC(C)(C)NS(C)(=O)=O [Example 45, N-(2-{4-Amino-2-ethoxymethyl-7-[6-(methanesulfonylamino)hexyloxy]-1H-imidazo[4,5-c]quinolin-1-yl}-1,1-dimethylethyl)methanesulfonamide]
176 to 179 °C	CCCn1c(CCOC)nc2c(N)nc3cc(OC4CCN(C(=O)NC(C)C)CC4)ccc3c21 [Example 388, 4-{[4-Amino-2-(2-methoxyethyl)-1-propyl-1H-imidazo[4,5-c]quinolin-7-yl]oxy}-N-isopropylpiperidine-1-carboxamide]
238 °C (dec.)	CCc1nc2c(N)nc3cc(OCCN)ccc3c2n1CC1CCOCC1 [Example 650, 7-(2-Aminoethoxy)-2-ethyl-1-(tetrahydro-2H-pyran-4-ylmethyl)-1H-imidazo[4,5-c]quinolin-4-amine]
240 to 243.5 °C	CCCn1c(COCC)nc2c(N)nc3ccc(OC4CCN(S(C)(=O)=O)CC4)cc3c21 [Example 413, 2-(Ethoxymethyl)-8-{[1-(methylsulfonyl)piperidin-4-yl]oxy}-1-propyl-1H-imidazo[4,5-c]quinolin-4-amine]
136 to 138 °C	CCCn1c(COCC)nc2c(N)nc3ccc(OCCCCCCNC(=O)C(C)C)cc3c21 [Example 407, N-(6-{[4-Amino-2-(ethoxymethyl)-1-propyl-1H-imidazo[4,5-c]quinolin-8-yl]oxy}hexyl)-2-methylpropanamide]
206 to 208 °C	CCCc1nc2c(N)nc3cc(OCCN4CCCC4=O)ccc3c2n1CC(C)C [Example 18, 1-{2-[4-Amino-1-(2-methylpropyl)-2-propyl-1H-imidazo[4,5-c]quinolin-7-yloxy]ethyl}pyrrolidin-2-one]
